Measurements as given in US20190119200A1, “TERTIARY AMIDES AND METHOD OF USE” (AbbVie Inc., priority 2016, published 2019).

Tests used:
LPAR1 [1] = target: T1, LPAR1 (Homo sapiens, UniProt Q92633); experiment: IP-One HTRF Assay; assay type: cell-based; settings: U2OS cells stably expressing LPAR1, LPA stimulation, IP-One Tb HTRF kit; for Emax: read-out: Maximum Inhibition
T1 construct: host or cells: U2OS
Description: U2OS cells stably expressing LPAR1 (Life Technologies #K1519A) were plated at 20000 cells/well in growth medium (McCoy's 5A(Life Technologies #16600-082)) with 10% dFBS (Life Technologies #26400-036), 0.1 mM non-essential amino acids, 25 mM HEPES, 1 mM sodium pyruvate, 1% penicillin/streptomycin, 50 μg/mL hygromycin, and 100 μg/mL Geneticin® in tissue culture treated 384-well white plates (Greiner #781080) in humidified 5% CO2 at 37° C. overnight. On the day of the assay, culture medium was replaced with 30 μL/well of McCoy's 5A with 0.1% BSA. Cells were incubated in humidified 5% CO2 at 37° C. for 3 more hours. Compounds were 3-fold serial diluted from 2 mM for 11-points using dimethyl sulfoxide. 1 μL of compound in DMSO was diluted in 50 μL stimulation buffer from an IP-One Tb HTRF kit (Cisbio #62IPAPEB) immediately before assay. 15 μL/well of 1.33× compound in stimulation buffer was added to cells after removal of culture medium. After 20 minutes of incubation at 37° C., 5 μL/well of 8 μM LPA diluted in stimulation buffer with 0.1% fatty acid free BSA was added to cells. […]. To EC100 wells were added 4×20 μM LPA. To the cells were added 5 μL/well IP1-d2 conjugate and 5 μLwell IP1-K antibody after 2 hours of incubation at 37° C. Cells were incubated at room temperature for 1 hour (protected from light). The plate was then read at 665 nm and 615 nm using an EnVision® Multilabel Plate Reader. IC50 values were calculated from curve fits of the ratio data using a four-parameter logistic Hill equation (Assay Explorer 3.3 Client).

LPAR1 [2] = target: T1, LPAR1; experiment: LPAR1 FLIPR Assay; assay type: cell-based; settings: U2OS cells stably expressing LPAR1, LPA (EC80), Calcium 6 FLIPR dye; for Emax: read-out: Maximum Inhibition
Procedure, shortened: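 Calcium flux read-out (515-575 nm, FLIPR) in LPAR1-expressing U2OS cells after LPA challenge at EC80, given 3 min after compound addition; cells carried Calcium 6 dye loaded 2 h at 37° C. Eleven-point 3-fold dilutions were fitted with a four-parameter Hill equation for IC50.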

T1 sequence (Q92633 whole entry): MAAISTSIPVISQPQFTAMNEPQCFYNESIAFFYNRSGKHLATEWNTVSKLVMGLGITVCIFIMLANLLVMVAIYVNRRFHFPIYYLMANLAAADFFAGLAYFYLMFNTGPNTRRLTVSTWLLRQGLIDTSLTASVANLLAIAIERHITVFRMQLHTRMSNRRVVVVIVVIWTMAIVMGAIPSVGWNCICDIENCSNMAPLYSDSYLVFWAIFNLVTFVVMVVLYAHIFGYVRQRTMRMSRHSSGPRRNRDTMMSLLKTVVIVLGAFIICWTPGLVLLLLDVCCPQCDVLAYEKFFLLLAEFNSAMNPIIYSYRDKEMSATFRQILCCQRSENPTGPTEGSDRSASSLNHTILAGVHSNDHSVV

SMILES	IC50 (LPAR1 [1])	Emax (LPAR1 [1])	IC50 (LPAR1 [2])	Emax (LPAR1 [2])
COc1cc(C(=O)N(CCCCC(=O)O)CCCc2ccco2)cc(OC)c1C [Example 173, 5-{(3,5-dimethoxy-4-methylbenzoyl)[3-(furan-2-yl)propyl]amino}pentanoic Acid]	523 nM	75%	29 nM	74%
COc1cc(C(=O)N(CCCc2ccccc2)CCOCP(=O)(O)O)cc(OC)c1C [Example 50, ({2-[(3,5-dimethoxy-4-methylbenzoyl)(3-phenylpropyl)amino]ethoxy}methyl)phosphonic Acid]	3 nM	85%	3 nM	101%
COc1cc(C(=O)N(CCCCC(=O)O)CCCc2ccccc2)cc(OC)c1OC [Example 10, 5-[(3-phenylpropyl)(3,4,5-trimethoxybenzoyl)amino]pentanoic Acid]	333 nM	77%	64 nM	92%
COc1cc(C(=O)N(CCCCC(=O)O)CCCc2cccc(Cl)c2)cc(OC)c1C [Example 38, 5-{[3-(3-chlorophenyl)propyl](3,5-dimethoxy-4-methylbenzoyl)amino}pentanoic Acid]	194 nM	90%	14 nM	99%
COc1cc(C(=O)N(CCCCC(=O)NS(C)(=O)=O)CCCc2ccccc2)cc(OC)c1C [Example 111, N-{5-[(methanesulfonyl)amino]-5-oxopentyl}-3,5-dimethoxy-4-methyl-N-(3-phenylpropyl)benzamide]	570 nM	80%	28 nM	95%
COc1cc(C(=O)N(CCCc2cccc(Cl)c2)CCSCC(=O)O)cc(OC)c1C [Example 122, [(2-{[3-(3-chlorophenyl)propyl](3,5-dimethoxy-4-methylbenzoyl)amino}ethyl)sulfanyl]acetic Acid]	134 nM	78%	10 nM	95%
COc1cc(C(=O)N(CCCc2ccccc2Cl)CCOCC(=O)O)cc(OC)c1C [Example 131, (2-{[3-(2-chlorophenyl)propyl](3,5-dimethoxy-4-methylbenzoyl)amino}ethoxy)acetic Acid]	1480 nM	101%	21 nM	86%
COc1cc(C(=O)N(CCCc2cccc(Cl)c2)CCOCC(=O)O)cc(OC)c1C [Example 109, (2-{[3-(3-chlorophenyl)propyl](3,5-dimethoxy-4-methylbenzoyl)amino}ethoxy)acetic Acid]	809 nM	85%	15 nM	93%
COc1cc(C(=O)N(CCCc2ccccc2)CCCC(C)(C)C(=O)O)cc(OC)c1C [Example 57, 5-[(3,5-dimethoxy-4-methylbenzoyl)(3-phenylpropyl)amino]-2,2-dimethylpentanoic Acid]	62 nM	95%	35 nM	100%
COc1cc(C(=O)N(CCCCC(=O)O)CCCc2cccc(F)c2)cc(OC)c1C [Example 33, 5-{(3,5-dimethoxy-4-methylbenzoyl)[3-(3-fluorophenyl)propyl]amino}pentanoic Acid]	166 nM	76%	19 nM	99%
COc1cc(C(=O)N(CCCc2cccc(F)c2)CCOCC(=O)O)cc(OC)c1C [Example 129, (2-{(3,5-dimethoxy-4-methylbenzoyl)[3-(3-fluorophenyl)propyl]amino}ethoxy)acetic Acid]	1310 nM	96%	20 nM	93%
COc1cc(C(=O)N(CCCc2ccccc2F)CCOCC(=O)O)cc(OC)c1C [Example 110, (2-{(3,5-dimethoxy-4-methylbenzoyl)[3-(2-fluorophenyl)propyl]amino}ethoxy)acetic Acid]	902 nM	82%	16 nM	90%
COc1cc(C(=O)N(CCCc2ccccc2)CCSC(C)CC(=O)O)cc(OC)c1C (centres unmarked) [Example 62, 3-({2-[(3,5-dimethoxy-4-methylbenzoyl)(3-phenylpropyl)amino]ethyl}sulfanyl)butanoic Acid]	291 nM	75%	29 nM	97%
COc1ccc(C2(C(=O)N(CCCCC(=O)O)CCCc3ccccc3)CC2)cc1 [Example 8, 5-{[1-(4-methoxyphenyl)cyclopropane-1-carbonyl](3-phenylpropyl)amino}pentanoic Acid]	2250 nM	84%	17 nM	86%
COc1cc(C(=O)N(CCCc2cccc(F)c2)CCSCC(=O)O)cc(OC)c1C [Example 117, [(2-{(3,5-dimethoxy-4-methylbenzoyl)[3-(3-fluorophenyl)propyl]amino}ethyl)sulfanyl]acetic Acid]	473 nM	85%	10 nM	93%
COc1cc(C(=O)N(CCCc2ccccc2)CCOCC(=O)O)cc(OC)c1C [Example 6, {2-[(3,5-dimethoxy-4-methylbenzoyl)(3-phenylpropyl)amino]ethoxy}acetic Acid]	183 nM	97%	11 nM	94%
COc1cc(C(=O)N(CCCCC(=O)O)CCCc2ccc(Cl)o2)cc(OC)c1C [Example 185, 5-{[3-(5-chlorofuran-2-yl)propyl](3,5-dimethoxy-4-methylbenzoyl)amino}pentanoic Acid]	325 nM	73%	13 nM	91%
COc1cc(C(=O)N(CCCCC(=O)O)CCCc2ccccc2)cc(OC)c1Br [Example 20, 5-[(4-bromo-3,5-dimethoxybenzoyl)(3-phenylpropyl)amino]pentanoic Acid]	50 nM	102%	20 nM	99%
COc1cc(C(=O)N(CCCc2ccccc2)CC(=O)NC2(C(=O)O)CC2)cc(OC)c1C [Example 3, 1-{[N-(3,5-dimethoxy-4-methylbenzoyl)-N-(3-phenylpropyl)glycyl]amino}cyclopropane-1-carboxylic Acid]	4270 nM	76%	71 nM	52%
COc1cc(C(=O)N(CCCc2ccccc2)CCSCCC(=O)O)cc(OC)c1C [Example 60, 3-({2-[(3,5-dimethoxy-4-methylbenzoyl)(3-phenylpropyl)amino]ethyl}sulfanyl)propanoic Acid]	208 nM	82%	20 nM	95%
COc1cc(C(=O)N(CCCCC(=O)O)CCCc2ccccc2)cc(OC)c1C1CC1 [Example 35, 5-[(4-cyclopropyl-3,5-dimethoxybenzoyl)(3-phenylpropyl)amino]pentanoic Acid]	59 nM	94%	32 nM	98%
COc1cc(C(=O)N(CCCc2ccc(C)o2)CCSCC(=O)O)cc(OC)c1C [Example 132, [(2-{(3,5-dimethoxy-4-methylbenzoyl)[3-(5-methylfuran-2-yl)propyl]amino}ethyl)sulfanyl]acetic Acid]	220 nM	80%	10 nM	86%
COc1cc(C(=O)N(CCCCC(=O)O)CCCc2ccccc2)cc(OC)c1C [Example 4, 5-[(3,5-dimethoxy-4-methylbenzoyl)(3-phenylpropyl)amino]pentanoic Acid]	115 nM	93%	14 nM	98%
COc1cc(C(=O)N(CCCCC(=O)O)CCCc2ccccc2)cc(OC)c1C(F)(F)F [Example 37, 5-{[3,5-dimethoxy-4-(trifluoromethyl)benzoyl](3-phenylpropyl)amino}pentanoic Acid]	69 nM	79%	32 nM	96%
COc1cc(C(=O)N(CCCc2ccccc2)CCOCC(=O)NS(C)(=O)=O)cc(OC)c1C [Example 157, N-(2-{2-[(methanesulfonyl)amino]-2-oxoethoxy}ethyl)-3,5-dimethoxy-4-methyl-N-(3-phenylpropyl)benzamide]	920 nM	75%	16 nM	92%
COc1cc(C(=O)N(CCCc2ccccc2)CCSCC(=O)O)cc(OC)c1C [Example 44, ({2-[(3,5-dimethoxy-4-methylbenzoyl)(3-phenylpropyl)amino]ethyl}sulfanyl)acetic Acid]	223 nM	80%	8 nM	96%
